pIC50: −log10 of the molar value. The source made the active and inactive calls. The rule behind the calls is not given here.
Key:
[1] = target: T1, Serine/threonine-protein kinase Chk1 (Homo sapiens, UniProt O14757); experiment: Competitive inhibition of Chk1 in presence of higher ATP levels
T1 sequence (O14757 whole entry): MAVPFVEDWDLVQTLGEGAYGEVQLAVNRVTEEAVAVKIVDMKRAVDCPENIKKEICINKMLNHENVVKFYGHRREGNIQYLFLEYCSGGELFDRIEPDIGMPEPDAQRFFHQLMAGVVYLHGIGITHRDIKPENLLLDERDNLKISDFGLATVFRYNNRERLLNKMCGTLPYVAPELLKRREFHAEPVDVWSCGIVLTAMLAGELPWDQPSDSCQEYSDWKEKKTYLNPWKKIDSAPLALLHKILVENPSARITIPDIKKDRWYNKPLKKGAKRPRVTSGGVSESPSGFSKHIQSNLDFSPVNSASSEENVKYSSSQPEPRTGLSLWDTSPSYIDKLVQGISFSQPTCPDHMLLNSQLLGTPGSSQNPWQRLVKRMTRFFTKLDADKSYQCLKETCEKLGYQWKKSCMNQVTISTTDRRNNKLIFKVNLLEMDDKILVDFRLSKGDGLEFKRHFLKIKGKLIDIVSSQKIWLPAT

[2] = target: T2, Serine/threonine-protein kinase Chk1 (Homo sapiens) (UniProt O14757); experiment: Competitive inhibition of immobilized Chk1 at 11 nM incubated for 30 mins followed by 24 hrs washout by HTRF assay in presence of 100 uM ATP
T2 sequence (whole entry): T1 sequence (O14757 whole entry)

[3] = target: T2, Serine/threonine-protein kinase Chk1 (Homo sapiens); experiment: Inhibition of immobilized Chk1 at 11 nM incubated for 30 mins followed by 24 hrs washout by HTRF assay

SMILES	pIC50 [1]	inhibition [2]	inhibition [3]
CC(=O)N1CCN(c2ccnc(Nc3ncc(-c4cncc(C(=O)NCCN)c4)s3)c2)CC1	10.52		
Cc1ncc(-c2cnc(Nc3cccc(N4CCNCC4)n3)s2)cn1	6.92		
c1cncc(-c2cncc(-c3cnc(Nc4cc(N5CCOCC5)ccn4)s3)c2)c1	7.72		
COc1ncc(-c2cncc(-c3cnc(Nc4cc(N5CCOCC5)ccn4)s3)c2)cn1	7.22		
Cc1ccc(-c2cnc(Nc3cc(N4CCN(S(C)(=O)=O)CC4)ccn3)s2)cn1	6.95		
Cc1ccc(-c2cnc(Nc3cc(N4CCNCC4)ccn3)s2)cn1	7.43		
NC/C=C/c1cncc(-c2cnc(Nc3cc(N4CCOCC4)ccn3)s2)c1	6.49		
N#Cc1cncc(-c2cnc(Nc3cc(N4CCNCC4)ccn3)s2)c1	7.46		
OCC#Cc1cncc(-c2cnc(Nc3cc(N4CCOCC4)ccn3)s2)c1	8.22		
Cc1ncc(-c2cnc(Nc3cc(N4CCNCC4)ccn3)s2)cn1	7.54		
CS(=O)(=O)N1CCN(c2ccnc(Nc3ncc(-c4cncc(C(=O)NCCN)c4)s3)c2)CC1	10.52		
NCCNC(=O)c1cncc(-c2cnc(Nc3cc(CN4CCOCC4)ccn3)s2)c1	9.40		
OCC1CN(c2ccnc(Nc3ncc(-c4cccnc4)s3)c2)CCO1 (stereo not drawn)	7.31		
CC(=O)N1CCN(c2ccnc(Nc3ncc(-c4ccc(C)nc4)s3)c2)CC1	6.69		
NCCCc1cncc(-c2cnc(Nc3cc(N4CCOCC4)ccn3)s2)c1	7.92		
CNCCNC(=O)c1cncc(-c2cnc(Nc3cc(N4CCOCC4)ccn3)s2)c1	9.00		

SMILES	pIC50 [1]	inhibition [2]	inhibition [3]
c1ccc(-c2cnc(Nc3cc(N4CCNCC4)ccn3)s2)cc1	6.28		
c1ncc(-c2cncc(-c3cnc(Nc4cc(N5CCOCC5)ccn4)s3)c2)cn1	7.43		
CS(=O)(=O)N1CCN(c2ccnc(Nc3ncc(-c4cncnc4)s3)c2)CC1	7.33		
COc1ncccc1-c1cncc(-c2cnc(Nc3cc(N4CCOCC4)ccn3)s2)c1	6.46		
NCCNC(=O)c1cncc(-c2cnc(Nc3cc(N4CCC(F)(F)CC4)ccn3)s2)c1	10.30	Active	Active
c1cc(N2CCOCC2)cc(Nc2ncc(-c3cncc(-c4cn[nH]c4)c3)s2)n1	7.46		
Cc1ncc(-c2cnc(Nc3cc(N4CCOCC4)ccn3)s2)cn1	7.22		
NCCC(=O)c1cncc(-c2cnc(Nc3cc(N4CCOCC4)ccn3)s2)c1	9.57		
Brc1cccc(-c2cnc(Nc3cc(N4CCNCC4)ccn3)s2)c1	< 5.98		
OCCNc1ccnc(Nc2ncc(-c3cncnc3)s2)c1	7.05		
c1cc(N2CCNCC2)cc(Nc2ncc(-c3cncc(-c4cn[nH]c4)c3)s2)n1	8.10		
NCCNC(=O)c1cncc(-c2cnc(Nc3cc(N4CCNCC4)ccn3)s2)c1	10.30		
Cc1ncc(-c2cnc(Nc3cccc(NCCCN)n3)s2)cn1	7.54		
N#Cc1cncc(-c2cnc(Nc3cc(N4CCOCC4)ccn3)s2)c1	6.36		
NCCCNC(=O)c1cncc(-c2cnc(Nc3cc(N4CCOCC4)ccn3)s2)c1	8.85		

— ChEMBL document CHEMBL2010744, “Pyridyl aminothiazoles as potent inhibitors of Chk1 with slow dissociation rates” (Bioorg Med Chem Lett, 2012)
